Laboratory results as given in patent US8853257B2, “Succinimide derivatives as ocular hypotensive agents” (priority 2005, dated 2014).
Several values for one entry are separate records, joined by “and”; a condition that tells them apart may be missing. Equal entries are not always repeated.

Columns and labels:
[1] = system: Dark Agauti (DA) pigmented rats; test: Effect of topical ethosuximide on intraocular pressure in rats (Tono-Pen); format: in vivo; settings: for IOP, treated eye (T), individual rats: one value per rat; for IOP, treated eye (T), Average X: rats
Experimental: Preliminary ocular pharmacodynamic studies were conducted to study the effect of ethosuximide on the intraocular pressure in rats by measuring IOP before and after administration of ethosuximide. IOP measurements were taken by a tonopen instrument. Ethosuximide was applied as a viscous solution obtained from Petnidan® capsules (Desitin, Hamburg, Germany). A recent study at Alcon Research laboratory (Pang I H, Wang W H, Clark A F: Acute effects of glaucoma medications on rat intraocular pressure, Exp Eye Res 2005, February; 80(2)207-14) has shown rats to be a proper animal model for glaucoma study. Another study at the Casey Eye Institute (Moore C G, Milne S T, Morrison J C: Noninvasive measurements of rat intraocular pressure with the Tono-Pen. Invest. Opthalmol. Vis. Sci. 1993 February; 34(2)363-9) has shown that a tonopen can be used reliably to measure IOP in normal rat eye.
Six Dark Agauti (DA) pigmented rats, (250-300 g in weight) were slightly sedated with 1.5-2 mg (0.15-0.2 ml) of intraperitoneal xylazine. One eye of each rat was randomly selected to receive topical administration of 50 µl of 250 mg/0.2 ml ethosuximide solution (content of Petnidan capsules). The second (control) eye received 50 µl of viscoelastic solution without the active ingredient (Viscotears™ manufactured by Novartis, Switzerland). At t=0 (immediately before) and at 30, 60 and 120 minutes after administration, topical anesthetic benoxinate was applied to both eyes and the intraocular pressures (IOP) were measured by a Tono-Pen XL tonometer (Medtronics). IOP values were recorded as the mean value of 6-10 successive measurements to minimize variability. The code, namely which eye of a pair was treated, was unknown to the technician who performed the IOP measurements. One rat expired after 1 hour due to excessive sedation. Five rats completed the experiment. In 2 out of 6 eyes that received the drug (vs. 1 of 6 eyes that were administered viscoelastic vehicle) a mild to moderate limbal vascular congestion was noticed, which tended to subside at 60 minutes.
At the end of the experiment, the code was broken and the IOP values in control and treated eyes were compared by statistical analysis.

[2] = system: normo-tensive New Zealand White (NZW) rabbits; test: Effect of topical ethosuximide on intraocular pressure in rabbits (Tono-Pen); format: in vivo; settings: for IOP, treated eye (T), individual rabbits: one value per rabbit
Experimental: Another study was conducted, in order to study the effect of ethosuximide on the intraocular pressure in rabbits by measuring IOP before and after administration of ethosuximide. IOP measurements were taken by a tonopen instrument. Ethosuximide was applied as a viscous solution obtained from Petnidan® capsules (Desitin, Hamburg, Germany).
Five fully awake, normo-tensive New Zealand White (NZW) rabbits, (each approximately 3.0 kg in weight) were used in this study. One eye of each rabbit was randomly selected to receive topical administration of 50 μl of 250 mg/0.2 ml ethosuximide solution (content of Petnidan capsules). The second (control) eye received 50 μl of viscoelastic solution without the active ingredient (Viscotears™ manufactured by Novartis, Switzerland). At t=0 (baseline, immediately before) and at 0.5, 1, 2, 4 and 6 hours after administration, topical anesthetic benoxinate was applied to both eyes and the intraocular pressures were measured by a Tono-Pen XL tonometer (Medtronics). IOP values were recorded as the mean value of 6-10 successive measurements to minimize variability. The code, namely which eye of a pair was treated, was (unknown to the technician who performed the IOP measurements. In 3 out of 5 eyes that received the drug (vs. 1 of 5 eyes that were administered viscoelastic vehicle) a mild to moderate limbal vascular congestion was noticed, which tended to subside at 60 minutes. In one treated eye the congestion persisted for two hours. At the end of the experiment, the code was broken and the IOP values in control and treated eyes were compared. The results are summarized in Table 2.

[3] = 60 min after topical administration
[4] = 120 min after topical administration

eyes with mild to moderate limbal vascular congestion ([1]; rat eyes that received the drug (vs. 1 of 6 vehicle eyes), tended to subside at 60 minutes): 2 out of 6 | eyes with mild to moderate limbal vascular congestion ([2]; rabbit eyes that received the drug (vs. 1 of 5 vehicle eyes), tended to subside at 60 minutes): 3 out of 5 | treated eyes in which the congestion persisted for two hours ([2]; rabbits): one
SMILES: CCC1(C)CC(=O)NC1=O (centres unmarked) [ethosuximide]
IOP, treated eye (T), individual rats ([1]; 30 min after topical 50 ul of 250 mg/0.2 ml ethosuximide solution): 17 mmHg and 16 mmHg and 15 mmHg and 15.3 mmHg and 20.5 mmHg and 22 mmHg | IOP, treated eye (T), Average X ([1]; 30 min after topical administration): 17.6 mmHg | IOP, treated eye (T), individual rats [1, 3]: 21.3 mmHg (2×) and 30 mmHg and 18 mmHg and 14.6 mmHg | IOP, treated eye (T), Average X [1, 3]: 21.0 mmHg | IOP, treated eye (T), individual rats [1, 4]: 22 mmHg and 17 mmHg and 19 mmHg and 20.5 mmHg and 20.2 mmHg | IOP, treated eye (T), Average X [1, 4]: 19.7 mmHg | IOP, treated eye (T), individual rabbits ([2]; 0.5 hour after topical 50 μl of 250 mg/0.2 ml ethosuximide solution): 17.3 mmHg and 18.3 mmHg and 16.3 mmHg and 19.7 mmHg and 20.0 mmHg | IOP, treated eye (T), Mean ([2]; 0.5 hour, rabbits): 18.3 mmHg | IOP, treated eye (T), individual rabbits ([2]; 1 hour after topical administration): 12.8 mmHg and 16.0 mmHg and 15.0 mmHg and 19.7 mmHg and 18.5 mmHg | Δ IOP, difference in mean IOP (T − C) ([2]; 1 hour, p .557): −0.6 mmHg | IOP, treated eye (T), Mean ([2]; 1 hour, rabbits): 16.0 mmHg | IOP, treated eye (T), individual rabbits ([2]; 2 hours after topical administration): 17.3 mmHg and 20.0 mmHg and 19.6 mmHg and 16.3 mmHg and 19.8 mmHg | Δ IOP vs t = o, mean IOP of treated eyes ([2]; 2 hours versus baseline, p .420): −1.4 mmHg | IOP, treated eye (T), Mean ([2]; 2 hours, rabbits): 18.6 mmHg | IOP, treated eye (T), individual rabbits ([2]; 4 hours after topical administration): 15.5 mmHg and 15.8 mmHg and 13.0 mmHg and 12.5 mmHg and 17.5 mmHg | IOP, treated eye (T), Mean ([2]; 4 hours, rabbits): 14.9 mmHg | IOP, treated eye (T), individual rabbits ([2]; 6 hours after topical administration): 19.5 mmHg and 20.0 mmHg and 13.5 mmHg and 19.4 mmHg and 16.0 mmHg | Δ IOP vs t = o, mean IOP of treated eyes ([2]; 6 hours versus baseline, p .404): −2.3 mmHg | Δ IOP, difference in mean IOP (T − C) ([2]; 6 hours, p .920): +0.1 mmHg | IOP, treated eye (T), Mean ([2]; 6 hours, rabbits): 17.7 mmHg
